Assay results from US20080299222A1, “Bioactive agrichemical compositions and use thereof” (priority 2007, published 2008).

System: E. amylovora 153N
Assay: Fire blight on Snow Drift crabapple trees (Example 287)
Assay type: in vivo, Erwinia amylovora
Details: rate 5 lbs/a (2.27 kg/a), mean of the counts, 100 blossoms per subplot
Experimental: A study of the bioefficacy of the various agrichemical compositions, including bioactive acid solutions and blends thereof with an antibiotic agrichemical, were evaluated to assess their bioefficacy against fire blight on crabapples. The study was conducted on 5 year old Snow Drift crabapple trees, with each of the compositions being applied to ten trees in two-subplots of five trees, four different times: at 100% bloom—day 1, a second application was made on day 4, a third on day 11 and a final treatment on day 19. The trees were inoculated with E. amylovora 153N at a concentration of 4×10^6 cells per milliliter on day 1, following drying of the treatment, with the inoculation being repeated on day 13. Evaluation for fire blight was completed on 100 blossoms for each of the subplots on day 12, day 19 and day 27. Additionally, the incidence of shoot infection and the length of cankers were evaluated on day 63.
The test compositions were prepared by forming solutions of the bioactive agents. Two different dilutions of the MI2 bioactive were evaluated; the first employing 94.46 ml/gallon (25 ml/l) of water (5 ppm of each metal) and the second 188.9 ml/gallon (50 ml/l) of water (10 ppm of each metal). A streptomycin product (17% concentrated) was diluted at a rate of 0.049 lbs/gallon ([…]) (200 ppm). Finally, copper hydroxide was diluted at a rate of 1 lb/gallon (119.8 g/l). Each of the compositions and blends were spray applied at a rate of 50 gallons (189.3 l) pre acre. The results are presented as the mean of the counts.

Which “Blossom Incidence” value (Day 12) does the source give for `[Cu+2].[OH-].[OH-]` [copper hydroxide] here?
Its value is 3.1.

And the “Blossom Incidence” value (Day 19)?
The value was 2.2.

And the “Blossom Incidence” value (Day 27)?
The value was 9.0.
